IC50 data for 36 compounds are collected here from US20120059162A1, “FUSED IMIDAZOLE DERIVATIVE HAVING TTK INHIBITORY ACTION” (Oncotherapy Science, Inc., priority 2009, published 2012).

One assay deals with T1, TTK (Homo sapiens, UniProt P33981).
T1 sequence (P33981 1-857): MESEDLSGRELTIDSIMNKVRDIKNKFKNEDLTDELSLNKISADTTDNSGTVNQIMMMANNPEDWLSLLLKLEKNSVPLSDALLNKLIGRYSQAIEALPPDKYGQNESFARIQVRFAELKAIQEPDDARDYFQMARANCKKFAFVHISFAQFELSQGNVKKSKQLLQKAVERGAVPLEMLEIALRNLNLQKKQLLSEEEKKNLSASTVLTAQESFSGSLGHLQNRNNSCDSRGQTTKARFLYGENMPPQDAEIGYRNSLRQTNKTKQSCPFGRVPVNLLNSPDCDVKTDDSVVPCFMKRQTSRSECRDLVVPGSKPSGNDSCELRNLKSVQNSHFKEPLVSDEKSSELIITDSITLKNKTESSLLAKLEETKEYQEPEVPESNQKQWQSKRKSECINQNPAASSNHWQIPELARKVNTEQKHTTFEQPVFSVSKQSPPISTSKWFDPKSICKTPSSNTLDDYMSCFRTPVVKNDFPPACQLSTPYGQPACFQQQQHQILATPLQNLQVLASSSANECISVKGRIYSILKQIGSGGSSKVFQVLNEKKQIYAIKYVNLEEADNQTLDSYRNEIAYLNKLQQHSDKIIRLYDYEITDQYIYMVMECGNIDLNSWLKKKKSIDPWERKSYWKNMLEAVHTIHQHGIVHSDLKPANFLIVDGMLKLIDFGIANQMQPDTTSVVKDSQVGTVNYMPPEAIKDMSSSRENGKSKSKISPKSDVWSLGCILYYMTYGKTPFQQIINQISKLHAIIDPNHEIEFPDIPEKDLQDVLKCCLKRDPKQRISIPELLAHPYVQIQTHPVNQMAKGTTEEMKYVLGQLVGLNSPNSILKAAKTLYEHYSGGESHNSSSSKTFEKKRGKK
The assay can be described thus: TTK assay: screening of TTK kinase activity suppressing action using p38 MAPK peptide. Type of assay: biochemical. Conditions: p38 MAPK peptide substrate; read-out: TTK IC50. As for the experimental part:
Screening of a compound having a TTK kinase activity suppressing action using p38 MAPK peptide
A test substance 1.0 μL (solvent: 10% (v/v) DMSO), TTK solution 5 μL (composition: 4 μg/ml TTK, 25 mM Tris-HCl, pH7.5, 5 mM β-glycerophosphate, 2 mM DTT, 0.1 mM Na3VO4, 5 mM MgCl2, 0.1% (w/v)BSA) and a substrate solution 5 μL (composition: 60 μM p38 MAPK peptide, 60 μM ATP, 25 mM Tris-HCl, pH7.5, 5 mM β-glycerophosphate, 2 mM DTT, 0.1 mM Na3VO4, 5 mM MgCl2, 0.1% (w/v)BSA) were mixed in the wells of a 384-well microtiter plate (manufactured by Corning Incorporated) made of polypropylene and loaded in a constant temperature and humidity room.
From the resultant mixture, an aliquot of 1.7 μL was taken out and mixed with the reaction terminating solution (60 μl) in the wells of a 384-well microtiter plate (manufactured by Corning Incorporated) made of polypropylene. Thereafter, 40 μL of the mixture was transferred to a 384-well black NeutrAvidin plate (PIERCE), sealed and incubated under room temperature for 30 minutes. […] Similarly, the plate was washed with TTBS (100 μL) three times, 40 μl of a secondary antibody solution (Eu-N1 labeled Anti-mouse IgG (Perkin Elmer, #AD0124)) was added and incubated under room temperature for 30 minutes. After the plate was washed with TTBS (100 μL) five times, 40 μL of an enhance solution (Perkin Elmer) was added and incubated under room temperature for 5 minutes. […] Based on the fluorescence value in the absence of a test substance, the suppression activity of a test substance was measured.

For the next assay, the system named is A549. The assay can be described thus: A549 assay: screening of cancer cell growth inhibiting compound. Type of assay: cell-based. Conditions: Homo sapiens, 72 h; A549 cells, three days, WST-8; read-out: A549 IC50. As for the experimental part:
Screening of Cancer Cell Growth Inhibiting Compound
A cell suspension solution (RERF-LC-AI, A549: 1×10^4/ml, MRC5: 3×10^4/ml and 1×10^5/ml) adjusted to an appropriate concentration with D-MEM (hereinafter, referred to as a culture solution and manufactured by Nacalai Tesque Inc.) supplemented with 10% FBS (HyClone) was added to the wells of a 96-well plate (hereinafter, well plate) at a rate of 100 μL/well and incubated in a CO2 incubator at 37° C. for a day. […] Next, cells were added to each well of the well plate prepared and the above compound dilution solution was added at a rate of 100 μL/well to obtain 200 μL/well. Thereafter, the cells were incubated in the CO2 incubator at 37° C. for further three days. To each well of the well plate, 10 μL of a WST-8 kit (Kishida Chemical Co., Ltd.) solution for counting the number of cells was added and a color reaction was performed in the CO2 incubator for 1 to 4 hours. After the absorbance at 450 nm (reference wavelength: 620 nm) was measured by a microplate reader, suppressing action of the test substance was calculated based on the absorbance value in the absence of a test substance.
(Tetrazolium dyes change colour on reduction, which living cells bring about.)

As usually defined, the IC50 is the concentration that inhibits the measured activity by half. `O=C(NC1CC1)c1ccc(-c2cnc3c(NCC4CCOCC4)cc(NCC4CCCCC4)nn23)cc1` [Example 2-16]: the half-maximal inhibitory concentration (IC50) on TTK was 4.8 nM; with A549, 50 to 500 nM.
In the case of `CN(c1cc(NCC2CCOCC2)c2ncc(-c3ccc(C(=O)NC4CC4)cc3)n2n1)C1CCCCC1` [Example 2-17], the half-maximal inhibitory concentration (IC50) is 3.1 nM at TTK and at most 50 nM in the assay on A549.
Take `COCCNc1cc(NCC2CCOCC2)c2ncc(-c3ccc(C(=O)NC4CC4)cc3)n2n1` [Example 2-18]: the half-maximal inhibitory concentration (IC50) at TTK is 18.4 nM; in the assay with A549 it was 50 to 500 nM.
Consider `CC1CCC(Nc2cc(NCC3CCOCC3)c3ncc(-c4ccc(C(=O)NC5CC5)cc4)n3n2)CC1` (stereo not drawn) [Example 2-19], for which the results for the IC50 at TTK and with A549 were 6 nM and 50 to 500 nM, respectively.
Taken in the same sequence, the figures for `CCCNc1cc(NCC2CCOCC2)c2ncc(-c3ccc(C(=O)NC4CC4)cc3)n2n1` [Example 2-21] were 7 nM and 50 to 500 nM.
Taken in the same sequence, the figures for `CC(C)CNc1cc(NCC2CCOCC2)c2ncc(-c3ccc(C(=O)NC4CC4)cc3)n2n1` [Example 2-22] were 6.2 nM and 50 to 500 nM.
Taken in the same sequence, the figures for `N#CC1CCN(c2cc(NCC3CCOCC3)c3ncc(-c4ccc(C(=O)NC5CC5)cc4)n3n2)CC1` [Example 2-23] were 8.8 nM and 50 to 500 nM.
Regarding `CC(C)N(C)c1cc(NCC2CCOCC2)c2ncc(-c3ccc(C(=O)NC4CC4)cc3)n2n1` [Example 2-24], the half-inhibitory concentration (IC50) on TTK was 5.5 nM; in the assay on A549, 50 to 500 nM.
Taken in the same sequence, the figures for `O=C(NC1CC1)c1ccc(-c2cnc3c(NCC4CCOCC4)cc(NC4CCC4)nn23)cc1` [Example 2-25] were 5.6 nM and 50 to 500 nM.
Taken in the same sequence, the figures for `COC1CCN(c2cc(NCC3CCOCC3)c3ncc(-c4ccc(C(=O)NC5CC5)cc4)n3n2)CC1` [Example 2-26] were 8.9 nM and 50 to 500 nM.
On the same counts, the results for `CCN(c1cc(NCC2CCOCC2)c2ncc(-c3ccc(C(=O)NC4CC4)cc3)n2n1)C1CCCC1` [Example 2-27] are 6 nM and 50 to 500 nM.
Consider `CN(c1cc(NCC2CCOCC2)c2ncc(-c3ccc(C(=O)NC4CC4)cc3)n2n1)C1CCCC1` [Example 2-28], for which the IC50 is 3.7 nM at TTK and 50 to 500 nM with A549.
Taken in the same sequence, the figures for `COCCN(c1cc(NCC2CCOCC2)c2ncc(-c3ccc(C(=O)NC4CC4)cc3)n2n1)C1CCCC1` [Example 2-29] were 6.2 nM and 50 to 500 nM.
Consider `O=C(NC1CC1)c1ccc(-c2cnc3c(NCC4CCOCC4)cc(NCC(F)(F)F)nn23)cc1` [Example 2-30], for which the half-inhibitory concentration (IC50) at TTK is 11.9 nM; in the assay with A549, 50 to 500 nM.
On to `CC(C)CN(CC(F)(F)F)c1cc(NCC2CCOCC2)c2ncc(-c3ccc(C(=O)NC4CC4)cc3)n2n1` [Example 2-32], for which the IC50 at TTK was 3.9 nM; in the assay on A549 it was 50 to 500 nM.
Taken in the same sequence, the figures for `CC(C)CN(CC1CC1)c1cc(NCC2CCOCC2)c2ncc(-c3ccc(C(=O)NC4CC4)cc3)n2n1` [Example 2-33] were 5.4 nM and 500 to 1000 nM.
Taken in the same sequence, the figures for `O=C(NC1CC1)c1ccc(-c2cnc3c(NCC4CCOCC4)cc(Nc4ccccc4O)nn23)cc1` [Example 2-34] were 3.7 nM and 50 to 500 nM.
On the same counts, the results for `O=C(NC1CC1)c1ccc(-c2cnc3c(NCC4CCOCC4)cc(Nc4ncccc4O)nn23)cc1` [Example 2-35] are 19.3 nM and 1000 to 10000 nM.
Take `O=C(NC1CC1)c1ccc(-c2cnc3c(NCC4CCOCC4)cc(NC(=O)C4CCCCC4)nn23)cc1` [Example 2-36]: the IC50 at TTK is 44.2 nM; with A549 it was 1000 to 10000 nM.
Taken in the same sequence, the figures for `O=C(NC1CC1)c1ccc(-c2cnc3c(NCC4CCOCC4)cc(NC45CC6CC(CC4C6)C5)nn23)cc1` [Example 2-37] were 2.7 nM and at most 50 nM.
For `O=C(NC1CC1)c1ccc(-c2cnc3c(NCC4CCOCC4)cc(NC4CC5CCCC(C5)C4)nn23)cc1` (stereo not drawn) [Example 2-38], the IC50 is 4.5 nM at TTK and at most 50 nM in the assay on A549.
Taken in the same sequence, the figures for `O=C(NC1CC1)c1ccc(-c2cnc3c(NCC4CCOCC4)cc(N4CCCC4=O)nn23)cc1` [Example 2-39] were 22 nM and 50 to 500 nM.
With `O=C(NC1CC1)c1ccc(-c2cnc3c(NCC4CCOCC4)cc(N4CCCCS4(=O)=O)nn23)cc1` [Example 2-40], the half-inhibitory concentration (IC50) at TTK was 7.5 nM; with A549, 50 to 500 nM.
Taken in the same sequence, the figures for `C[C@@H]1CN(c2cc(NCC3CCOCC3)c3ncc(-c4ccc(C(=O)NC5CC5)cc4)n3n2)C[C@H](C)O1` [Example 2-41] were 10.1 nM and 50 to 500 nM.
On the same counts, the results for `O=C(NC1CC1)c1ccc(-c2cnc3c(NCC4CCOCC4)cc(N[C@H]4CC[C@H](O)CC4)nn23)cc1` [Example 2-43] are 12.5 nM and 500 to 1000 nM.
Taken in the same sequence, the figures for `O=C(NC1CC1)c1ccc(-c2cnc3c(NCC4CCOCC4)cc(N4CCN(C(=O)C5CC5)CC4)nn23)cc1` [Example 2-47] were 3.1 nM and 50 to 500 nM.
Take `CC(=O)NCC1CN(c2cc(NCC3CCOCC3)c3ncc(-c4ccc(C(=O)NC5CC5)cc4)n3n2)CCO1` (stereo not drawn) [Example 2-48]: the results for the IC50 at TTK and with A549 were 13.9 nM and 1000 to 10000 nM, respectively.
On the same counts, the results for `O=C(NC1CC1)c1ccc(-c2cnc3c(NCC4CCOCC4)cc(N4CCOC(CO)C4)nn23)cc1` (stereo not drawn) [Example 2-49] are 17.8 nM and 500 to 1000 nM.
Taken in the same sequence, the figures for `O=C(NC1CC1)c1ccc(-c2cnc3c(NCC4CCOCC4)cc(N4CCC(C(F)(F)F)CC4)nn23)cc1` [Example 2-51] were 13.4 nM and 50 to 500 nM.
Taken in the same sequence, the figures for `COCC(C)Nc1cc(NCC2CCOCC2)c2ncc(-c3ccc(C(=O)NC4CC4)cc3)n2n1` (stereo not drawn) [Example 2-52] were 17.8 nM and 50 to 500 nM.
With `O=C(NC1CC1)c1ccc(-c2cnc3c(NCC4CCOCC4)cc(N4CCCC4)nn23)cc1` [Example 2-53], the results for the half-inhibitory concentration (IC50) on TTK and in the assay on A549 were 25.9 nM and 1000 to 10000 nM, respectively.
On to `O=C(NC1CC1)c1ccc(-c2cnc3c(NCC4CCOCC4)cc(NC4CC=CC4)nn23)cc1` [Example 2-54], for which the IC50 at TTK is 7.4 nM; in the assay on A549 it was 50 to 500 nM.
Taken in the same sequence, the figures for `CC(C)C(C)Nc1cc(NCC2CCOCC2)c2ncc(-c3ccc(C(=O)NC4CC4)cc3)n2n1` (stereo not drawn) [Example 2-55] were 4.9 nM and 50 to 500 nM.
Regarding `CC(C)(C)CNc1cc(NCC2CCOCC2)c2ncc(-c3ccc(C(=O)NC4CC4)cc3)n2n1` [Example 2-57], the IC50 was 4.5 nM on TTK and 50 to 500 nM in the assay on A549.
For `CCCC(C)Nc1cc(NCC2CCOCC2)c2ncc(-c3ccc(C(=O)NC4CC4)cc3)n2n1` (stereo not drawn) [Example 2-58], the concentration for half-maximal inhibition (IC50) on TTK is 5.5 nM; in the assay on A549, 50 to 500 nM.
On to `CCC(C)CNc1cc(NCC2CCOCC2)c2ncc(-c3ccc(C(=O)NC4CC4)cc3)n2n1` (stereo not drawn) [Example 2-59], for which the 50% inhibitory concentration (IC50) on TTK was 5.2 nM; with A549, 50 to 500 nM.
